The values that follow come from PubChem BioAssay (NCI).

Several values for one entry are separate records, joined by “and”; a condition that tells them apart may be missing. Equal values may be shown once.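 In this assay, cells in 96-well plates receive the compound at five concentrations for 48 hours. Endpoints are linearly interpolated between the surrounding concentrations. At the GI50, growth is halved. TGI is the concentration that stops growth completely.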 Some results are limits rather than exact numbers.

Some test systems named below: NCI-H460 lung; T-47D breast; A549 NSCLC; TK-10 renal; NCI-H226 lung; COLO 205 colon; RPMI-8226 leukemia; SK-MEL-28 melanoma; OVCAR-4 ovarian; SW-620 colon.
Common to all, as to experiment: DTP human tumour cell line panel, 48 h

Take `CN(CCOc1ccc(C#N)cc1)CCOc1ccc(C#N)cc1`: the GI50 (in general, the concentration giving 50% growth inhibition) was above 100 µM with NCI-H460 lung; above 100 µM in the assay on T-47D breast; above 100 µM in the assay with A549 NSCLC; 28.7 µM in the assay on TK-10 renal; above 100 µM in the assay with NCI-H226 lung; above 100 µM with COLO 205 colon. The GI50 is 7.39 µM in the assay on RPMI-8226 leukemia, above 100 µM in the assay on SK-MEL-28 melanoma, 67.5 µM with OVCAR-4 ovarian and 57.5 µM with SW-620 colon. The TGI with NCI-H460 lung, in the assay on T-47D breast, in the assay with A549 NSCLC, in the assay on TK-10 renal, in the assay on NCI-H226 lung and with COLO 205 colon was above 100 µM throughout. Besides, the TGI with RPMI-8226 leukemia, in the assay on SK-MEL-28 melanoma, in the assay on OVCAR-4 ovarian and with SW-620 colon was above 100 µM throughout.
With `Cc1cc(C(C#N)c2ccc(Cl)cc2)c(Cl)cc1NC(=O)c1cc(I)cc(I)c1O` (configuration not stated), the GI50 in the assay on NCI-H460 lung was 4.87 µM and 19.5 µM; in the assay on T-47D breast, 19.1 µM and 15.2 µM; with A549 NSCLC, 13.6 µM and 21.3 µM; in the assay on TK-10 renal, 11.8 µM and 22.4 µM; with NCI-H226 lung it was 11.9 µM; in the assay with COLO 205 colon, 15.2 µM and 16.2 µM. The GI50 in the assay with RPMI-8226 leukemia is 3.15 µM and 11.1 µM; in the assay on SK-MEL-28 melanoma, 5.42 µM and 14.8 µM; in the assay on OVCAR-4 ovarian it was 16.4 µM and 17.5 µM; with SW-620 colon, 6.91 µM and 16.7 µM. Further, the TGI – broadly, the concentration at which net growth stops – in the assay on NCI-H460 lung was 28.5 µM and 46.3 µM; in the assay on T-47D breast, 46.9 µM and 37 µM; in the assay with A549 NSCLC it was 56.3 µM and 44.5 µM; in the assay with TK-10 renal, 33.9 µM and 65.4 µM; in the assay with NCI-H226 lung, 43.4 µM; in the assay on COLO 205 colon it was 28.8 µM and 29.7 µM. Moreover, the TGI in the assay with RPMI-8226 leukemia is 13 µM and 43.5 µM; with SK-MEL-28 melanoma, 19.7 µM and 30.3 µM; with OVCAR-4 ovarian, 51.4 µM and 47.9 µM; with SW-620 colon, 22.6 µM and 34.6 µM.
In the case of `CCOc1ccc(NCc2cc(OC)c(OC)c(OC)c2)cc1`, the TGI in the assay with NCI-H460 lung was > 100 µM and 58 µM; in the assay with T-47D breast, above 100 µM; with A549 NSCLC it was above 100 µM; with TK-10 renal, above 100 µM; with NCI-H226 lung, above 100 µM; in the assay on COLO 205 colon it was 2.46 µM and 5.04 µM. For the same compound, the TGI in the assay on RPMI-8226 leukemia is 57 µM and > 74.6 µM; with SK-MEL-28 melanoma, above 100 µM; with OVCAR-4 ovarian, above 100 µM; in the assay on SW-620 colon, above 100 µM. Moreover, the GI50 was 1.66 µM and 4.48 µM with T-47D breast; above 100 µM in the assay with TK-10 renal.
Consider `CC[C@H](CC#N)OC(=O)N[C@@H](C)c1cccc(NC(=O)Nc2ccc(-c3cnco3)c(OC)c2)c1`, for which the GI50 in the assay with NCI-H460 lung is 0.0328 µM; in the assay on T-47D breast it was 0.165 µM; with A549 NSCLC, 0.0336 µM; with TK-10 renal it was 0.171 µM; with NCI-H226 lung, 2 µM; in the assay with COLO 205 colon, 0.0203 µM. Moreover, the GI50 in the assay on RPMI-8226 leukemia is 0.152 µM; with SK-MEL-28 melanoma, 0.0505 µM; in the assay on OVCAR-4 ovarian it was 14.1 µM; with SW-620 colon it was 0.0229 µM. The concentration for total growth inhibition (TGI) was determined as 17.1 µM in the assay with NCI-H460 lung; 21.4 µM with T-47D breast; 20.9 µM in the assay on A549 NSCLC; 28.3 µM with TK-10 renal; 38.4 µM in the assay with NCI-H226 lung; 18 µM with COLO 205 colon. Also, the TGI with RPMI-8226 leukemia worked out at 19.4 µM; in the assay with SK-MEL-28 melanoma, 21.8 µM; with OVCAR-4 ovarian it was 71.7 µM; in the assay with SW-620 colon, 40.6 µM.
`Clc1nc(Cl)c2ncn(Cc3ccc(COc4cccc(OCc5ccc(Cn6cnc7c(Cl)nc(Cl)nc76)cc5)c4)cc3)c2n1`: the GI50 in the assay with NCI-H460 lung was above 100 µM; in the assay on T-47D breast, 21.5 µM; with A549 NSCLC, above 100 µM; in the assay on TK-10 renal, 27 µM; in the assay on NCI-H226 lung, 21 µM; in the assay with COLO 205 colon, above 100 µM. Besides, the GI50 in the assay with RPMI-8226 leukemia was 9.5 µM; in the assay on SK-MEL-28 melanoma, 52.8 µM; in the assay with OVCAR-4 ovarian it was 15.1 µM; with SW-620 colon, above 100 µM. Further, the TGI in the assay on NCI-H460 lung is above 100 µM; in the assay on T-47D breast, above 100 µM; in the assay with A549 NSCLC it was above 100 µM; in the assay on TK-10 renal it was above 100 µM; in the assay on NCI-H226 lung, 60.3 µM; in the assay with COLO 205 colon, above 100 µM. For the same compound, the TGI in the assay with RPMI-8226 leukemia, in the assay with SK-MEL-28 melanoma, in the assay with OVCAR-4 ovarian and in the assay on SW-620 colon was above 100 µM each time.
Consider `OCCCCCCOc1ccc(-c2cc(-c3ccccn3)nc(-c3ccccn3)c2)cc1`, for which the TGI was 1.17 µM in the assay with NCI-H460 lung; 5.74 µM with T-47D breast; 6.42 µM in the assay on A549 NSCLC; 6.66 µM with TK-10 renal; 1.06 µM in the assay on NCI-H226 lung; 8.09 µM with COLO 205 colon. In addition, the TGI turned out to be 1.88 µM in the assay on RPMI-8226 leukemia, 2.72 µM in the assay with SK-MEL-28 melanoma, 4.81 µM in the assay with OVCAR-4 ovarian and 14.7 µM with SW-620 colon.
As to `C=C(C)C(=O)O[C@H]1[C@H]2[C@H](OC(=O)[C@H]2C)[C@H](O)[C@@H](C)[C@@H]2C=CC(=O)[C@]21C`, the TGI with NCI-H460 lung was found to be 3.72 µM; with T-47D breast, 12.5 µM; with A549 NSCLC it was 12.5 µM; in the assay on TK-10 renal, 8.09 µM; in the assay with NCI-H226 lung it was 39 µM; in the assay on COLO 205 colon, 9.97 µM. Further, the TGI with RPMI-8226 leukemia was 9.73 µM; in the assay with SK-MEL-28 melanoma, 5.85 µM; in the assay on OVCAR-4 ovarian, 19.9 µM; in the assay with SW-620 colon, 10.7 µM.
For `CC(C)NC(=O)OCCS(=O)c1c(Cl)c(Cl)nn1C` (configuration not stated), the TGI in the assay on NCI-H460 lung was above 100 µM; in the assay on T-47D breast, above 100 µM; in the assay with A549 NSCLC it was above 100 µM; in the assay on TK-10 renal, above 100 µM; in the assay with NCI-H226 lung, above 100 µM; in the assay with COLO 205 colon, 44 µM. For the same compound, the TGI in the assay with RPMI-8226 leukemia, in the assay on SK-MEL-28 melanoma, with OVCAR-4 ovarian and in the assay on SW-620 colon was above 100 µM throughout.
Regarding `CC(CNC(Cc1ccccc1)c1ccccc1)NC(Cc1ccccc1)c1ccccc1` (configuration not stated), the GI50 in the assay with NCI-H460 lung was 2.03 µM; in the assay on T-47D breast, 1.96 µM; in the assay with A549 NSCLC it was 4.18 µM; in the assay on TK-10 renal, 3.22 µM; in the assay with NCI-H226 lung it was 1.94 µM; in the assay with COLO 205 colon, 1.66 µM. Further, the GI50 in the assay with RPMI-8226 leukemia was 2.23 µM; with SK-MEL-28 melanoma, 2.84 µM; with OVCAR-4 ovarian, 2.59 µM; in the assay on SW-620 colon it was 2.75 µM. Further, the TGI with NCI-H460 lung turned out to be 4.06 µM; in the assay on T-47D breast, 4.95 µM; with A549 NSCLC it was 15 µM; in the assay with TK-10 renal it was 12.5 µM; in the assay on NCI-H226 lung, 4.09 µM; in the assay on COLO 205 colon it was 3.46 µM. Moreover, the TGI turned out to be 4.88 µM in the assay with RPMI-8226 leukemia, 7.81 µM in the assay with SK-MEL-28 melanoma, 10.6 µM in the assay on OVCAR-4 ovarian and 8.53 µM in the assay with SW-620 colon.
